Reference: US11426494B2, “Stents having biodegradable layers” (MT Acquisition Holdings LLC, priority 2007, dated 2022)
One block for each compound: values may come before it.

What was measured:
[1] = drug elution from DES coating; assay type: physicochemical; details: heparin+taxol in DES coating, FIG. 9, preliminary data
[2] = rapamycin degradation in DES coating (peak area ratio, control vs Micell processed); assay type: physicochemical; details: Micell processed materials vs control samples, FIG. 6

heparin elution continuing [1]: > 15 days
Compound: heparin

Compound: CO[C@H]1C[C@@H]2CC[C@@H](C)[C@@](O)(O2)C(=O)C(=O)N2CCCC[C@H]2C(=O)O[C@H]([C@H](C)C[C@@H]2CC[C@@H](O)[C@H](OC)C2)CC(=O)[C@H](C)/C=C(\C)[C@@H](O)[C@@H](OC)C(=O)[C@H](C)C[C@H](C)/C=C/C=C/C=C/1C [rapamycin]
rate of rapamycin degradation (peak area ratio) [2]: no difference in the rate of rapamycin degradation

Compound: CC(=O)O[C@H]1C(=O)[C@@]2(C)[C@H]([C@H](OC(=O)c3ccccc3)[C@]3(O)C[C@H](OC(=O)[C@H](O)[C@@H](NC(=O)c4ccccc4)c4ccccc4)C(C)=C1C3(C)C)[C@]1(OC(C)=O)CO[C@@H]1C[C@@H]2O [taxol]
primary drug (taxol) elution profile on addition of a 2nd drug (heparin) [1]: not affecting primary drug (taxol) elution profile
